Reference: EP4707280A1, “1,4-CINEOLE DERIVATIVE AND INTERMEDIATE THEREOF, HERBICIDE CONTAINING SAID DERIVATIVE AS ACTIVE INGREDIENT, METHOD FOR USING HERBICIDE, AND METHOD FOR PREPARING AGROCHEMICAL COMPOSITION” (HOKKO CHEMICAL INDUSTRY CO., LTD., priority 2023, dated 2024)

Tests used:
Assay type in all cases: in vivo
[1] = system: Echinochloa crus-galli var. formosensis; assay: Test Example 1: herbicidal effect test by soil application in paddy rice; conditions: Echinochloa crus-galli, soil, 336 h; 120 g active ingredient per 10 ares; applied immediately after sowing, flooded pots; 14 days after application; read-out: weed inhibition rate
Procedure: Wagner pots with an area of […] were filled with paddy soil, followed by addition of water and incorporation of chemical fertilizer (N:P:K = 16:16:16), after which puddling was performed. After that, seeds of Echinochloa crus-galli var. formosensis, broad-leaved weeds ([…] Monochoria vaginalis), and Scirpus juncoides were sown at a depth of 0 cm to 1 cm, 30 seeds each. Immediately after sowing, the pots were flooded and a water depth of approximately 3 cm was maintained. Subsequent management was conducted in a glass greenhouse. Immediately thereafter, an emulsifiable concentrate prepared according to Formulation Example 5 using the compound shown below was diluted with water, and a specified amount of the diluted solution was applied by dropper. The amount of the active ingredient to be applied was equivalent to 120 g per 10 ares.

Digitaria ciliaris [2] = assay: Test Example 4: herbicidal effect test by stem and leaf treatment in upland field; conditions: Digitaria ciliaris; 120 g per 10 ares; sprayed seven days after sowing, upland soil; 14 days after application; read-out: weed inhibition rate
Procedure: (§1) The present test was conducted in duplicate for each chemical concentration group, and the weed inhibition rate (%) was determined 14 days after chemical application using the following formula (Math. 1). [formula]
(§2) Pots with an area of 36 cm^2 were filled with upland soil (alluvial loam), twenty seeds each of weeds of Digitaria ciliaris, Echinochloa crus-galli, and Amaranthus viridis were uniformly mixed with the top 1 cm layer of soil and the surface was lightly pressed down. Seven days after sowing, an emulsifiable concentrate prepared according to Formulation Example 5 using the compound shown below was diluted with water, and the diluted solution was sprayed onto the soil surface at a rate of 100 liters per 10 ares. The amount of the active ingredient to be applied was equivalent to 120 g per 10 ares. Fourteen days after chemical application, the herbicidal effect was evaluated according to the same criteria as in Test Example 1.

Echinochloa crus-galli [3] = assay: Test Example 3: herbicidal effect test by soil application in upland field; conditions: Echinochloa crus-galli, 120 g per 10 ares, sprayed one day after sowing, 14 days after application, read-out: weed inhibition rate
Procedure: as §1
as §2, with “crus-galli, Chenopodium album,” for “crus-galli,”, “One day” for “Seven days”

Digitaria ciliaris [4] = assay: as above; conditions: Digitaria ciliaris, 120 g per 10 ares, sprayed one day after sowing, 14 days after application, read-out: weed inhibition rate
Procedure: as §1
as §2, with “crus-galli, Chenopodium album,” for “crus-galli,”, “One day” for “Seven days”

Echinochloa crus-galli [5] = assay: Test Example 4: herbicidal effect test by stem and leaf treatment in upland field; conditions: Echinochloa crus-galli; 120 g per 10 ares; sprayed seven days after sowing, upland soil; 14 days after application; read-out: weed inhibition rate
[6] = system: Echinochloa crus-galli var. formosensis; assay: Test Example 2: herbicidal effect test by application during growth period of paddy rice; conditions: Echinochloa crus-galli; 120 g per 10 ares; applied seven days after sowing, flooded pots; 14 days after application; read-out: weed inhibition rate
Procedure: as §1
Wagner pots with an area of […] were filled with paddy soil, followed by addition of water and incorporation of chemical fertilizer (N:P:K = 16:16:16), after which puddling was performed. After that, seeds of Echinochloa crus-galli var. formosensis, broad-leaved weeds (Monochoria vaginalis), and Scirpus juncoides were sown at a depth of 0 cm to 1 cm, 30 seeds each. Immediately after sowing, the pots were flooded and a water depth of approximately 3 cm was maintained. Subsequent management was conducted in a glass greenhouse. Seven days after sowing, an emulsifiable concentrate prepared according to Formulation Example 5 using the compound shown below was diluted with water, and a specified amount of the diluted solution was applied by dropper. The amount of the active ingredient to be applied was equivalent to 120 g per 10 ares. The test was conducted in duplicate for each chemical concentration group, and the herbicidal effect was evaluated 14 days after chemical application using the same criteria as in Test Example 1.

COc1cccc(COC2CC3(C(C)C)OC2(C)CC3Br)c1 (stereo not drawn) [1-1350, 5-bromo-2-[(3-methoxyphenyl)methoxy]-1-methyl-4-isopropyl-7-oxabicyclo[2.2.1]heptane]
≥ 80%: pest or weed control at 1200 g/ha [1] | inhibition at 1200 g/ha (Digitaria ciliaris [2]) | inhibition at 1200 g/ha (Echinochloa crus-galli [3]) | inhibition at 1200 g/ha (Digitaria ciliaris [4]) | inhibition at 1200 g/ha (Echinochloa crus-galli [5]) | inhibition at 1200 g/ha [6]

CC(C)C12CC(OCc3ccccc3I)C(C)(CC1Br)O2 (stereo not drawn) [1-1364, 5-bromo-2-[(2-iodophenyl)methoxy]-1-methyl-4-isopropyl-7-oxabicyclo[2.2.1]heptane]
≥ 80%: pest or weed control at 1200 g/ha [1] | inhibition at 1200 g/ha (Digitaria ciliaris [2]) | inhibition at 1200 g/ha (Echinochloa crus-galli [3]) | inhibition at 1200 g/ha (Digitaria ciliaris [4]) | inhibition at 1200 g/ha (Echinochloa crus-galli [5]) | inhibition at 1200 g/ha [6]

Cc1cccc(C)c1CO[C@H]1C[C@@]2(C(C)C)O[C@]1(C)C[C@H]2I [1-1118, (1R,2S,4S,5R)-2-[(2,6-dimethylphenyl)methoxy]-5-iodo-1-methyl-4-isopropyl-7-oxabicyclo[2.2.1]heptane]
≥ 80%: pest or weed control at 1200 g/ha [1] | inhibition at 1200 g/ha (Digitaria ciliaris [2]) | inhibition at 1200 g/ha (Echinochloa crus-galli [3]) | inhibition at 1200 g/ha (Digitaria ciliaris [4]) | inhibition at 1200 g/ha (Echinochloa crus-galli [5]) | inhibition at 1200 g/ha [6]

CC(C)[C@]12C[C@@H](OCc3ccccc3F)[C@](C)(C[C@H]1C)O2 (racemic) [1-1597, (1SR,2RS,4RS,5RS)-2-[(2-fluorophenyl)methoxy]-1,5-dimethyl-4-isopropyl-7-oxabicyclo[2.2.1]heptane]
≥ 80%: pest or weed control at 1200 g/ha [1] | inhibition at 1200 g/ha (Digitaria ciliaris [2]) | inhibition at 1200 g/ha (Echinochloa crus-galli [3]) | inhibition at 1200 g/ha (Digitaria ciliaris [4]) | inhibition at 1200 g/ha (Echinochloa crus-galli [5]) | inhibition at 1200 g/ha [6]

COCO[C@@H]1C[C@]2(C(C)C)O[C@@]1(C)C[C@@H]2Br [1-677, (1S,2R,4R,5S)-5-bromo-2-(methoxymethoxy)-1-methyl-4-isopropyl-7-oxabicyclo[2.2.1]heptane]
≥ 80%: inhibition at 1200 g/ha [6]

Cc1cccc(C)c1COC1CC2(C(C)C)OC1(C)CC2Br (stereo not drawn) [1-1599, 5-bromo-2-[(2,6-dimethylphenyl)methoxy]-1-methyl-4-isopropyl-7-oxabicyclo[2.2.1]heptane]
≥ 80%: pest or weed control at 1200 g/ha [1] | inhibition at 1200 g/ha (Digitaria ciliaris [2]) | inhibition at 1200 g/ha (Echinochloa crus-galli [3]) | inhibition at 1200 g/ha (Digitaria ciliaris [4]) | inhibition at 1200 g/ha (Echinochloa crus-galli [5]) | inhibition at 1200 g/ha [6]

C=CCO[C@@H]1C[C@]2(C(C)C)O[C@@]1(C)C[C@@H]2Br [1-671, (1S,2R,4R,5S)-5-bromo-1-methyl-4-isopropyl-2-prop-2-enoxy-7-oxabicyclo[2.2.1]heptane]
≥ 80%: inhibition at 1200 g/ha (Echinochloa crus-galli [5])

Cc1ccc(C2C[C@]3(C)O[C@@]2(C(C)C)C[C@H]3OCc2ccccc2F)cc1 (stereo partly drawn) [1-927, (1S,2R,4R)-2-((2-fluorobenzyl)oxy)-4-isopropyl-1-methyl-5-(p-tolyl)-7-oxabicyclo[2.2.1]heptane]
≥ 80%: inhibition at 1200 g/ha (Echinochloa crus-galli [3]) | inhibition at 1200 g/ha (Digitaria ciliaris [4])

COc1cccc(CO[C@@H]2C[C@]3(C(C)C)O[C@@]2(C)CC3=O)c1 [2-347, (1R,4S,5R)-1-isopropyl-5-((3-methoxybenzyl)oxy)-4-methyl-7-oxabicyclo[2.2.1]heptan-2-one]
≥ 80%: pest or weed control at 1200 g/ha [1] | inhibition at 1200 g/ha (Echinochloa crus-galli [3])

C#CCO[C@@H]1C[C@]2(C(C)C)O[C@@]1(C)C[C@@H]2Br [1-673, (1S,2R,4R,5S)-5-bromo-1-methyl-4-isopropyl-2-prop-2-ynoxy-7-oxabicyclo[2.2.1]heptane]
≥ 80%: pest or weed control at 1200 g/ha [1] | inhibition at 1200 g/ha [6]

CCOC1C[C@]2(C)O[C@@]1(C(C)C)C[C@H]2OCc1ccccc1F (mixture of isomers) [1-916, (1S,2R,4R,SR)-5-ethoxy-2-[(2-fluorophenyl)methoxy]-1-methyl-4-isopropyl-7-oxabicyclo[2.2.1]heptane]
≥ 80%: inhibition at 1200 g/ha (Digitaria ciliaris [2]) | inhibition at 1200 g/ha (Echinochloa crus-galli [5])

CC(C)[C@]12C[C@@H](OCc3ccc4ccccc4c3)[C@](C)(C[C@@H]1Br)O2 [1-716, (1S,2R,4R,5S)-5-bromo-1-methyl-2-(naphthalen-2-ylmethoxy)-4-isopropyl-7-oxabicyclo[2.2.1]heptane]
≥ 80%: pest or weed control at 1200 g/ha [1] | inhibition at 1200 g/ha [6]
